Tests used:
BTK = BTK (Homo sapiens (Human), UniProt Q06187); experiment: BTK enzyme activity, IMAP assay; format: biochemical; conditions: 60 min pre-incubation; 5 μM ATP
Experimental: BTK enzyme activity is measured using the IMAP (immobilized metal ion affinity-based fluorescence polarization) assay as outlined below.
BTK enzyme (His-BTK (Millipore catalog #14-552)), is diluted to 0.4 U/mL in KR buffer (10 mM Tris-HCl, 10 mM MgCl2, 0.01% Tween-20, 0.05% NaN3, 1 mM DTT, 2 mM MnCl2, pH 7.2).
(§1) Serial dilutions log 10 from 2 mM to 63.2 nM of test compounds are made in 100% DMSO. The dilutions in DMSO are then diluted 50-fold in KR-buffer. Final compound concentration range in the assay ranged from 10 μM to 0.316 nM.
The assay is performed as follows: 5 μL/well of test compound in KR buffer (final DMSO concentration in the assay is 1%) is mixed with 5 µl/well of 0.4 U/mL BTK enzyme (final concentration in the assay is 0.1 U/mL). Test compounds and BTK enzyme are pre-incubated 60 minutes at room temperature, before adding 5 μL/well of 200 nM Fluorescin labeled substrate peptide (Blk/Lyntide substrate, e.g. #R7188/#R7233, Molecular Devices) in KR-buffer. Final peptide substrate concentration in assay is 50 nM. […] Following incubation for 2 hours at room temperature the enzyme reaction is stopped by adding 40 μL/well IMAP Progressive Binding Solution (according to suppliers (Molecular Devices) protocol using 75% 1× buffer A and 25% 1× buffer B with 1:600 Progressive Binding Solution). After 60 min incubation at room temperature in the dark the FP signal is read. Fluorescence at 535 nm is measured using parallel and perpendicular filters to determine differences in rotation due to binding of the phosphorylated substrate peptide to the beads. Values are calculated as percentage of the difference in readout (ΔmPi) of the controls with and without ATP. IC50 values are determined by curve fitting of the experimental results using Activity Base.

[1] = system: CD69 in CD19+ B cells of anti-IgM stimulated PBMCs; experiment: Human peripheral blood mononuclear cell (PBMC) CD69 assay; format: cell-based; conditions: Homo sapiens, PBMC, 2 h compound, then anti-IgM 18 hours
Experimental: Example 44—Human Peripheral Blood Mononuclear Cell (PBMC) CD69 Assay
Whole blood was collected in heparin-coated Vacutainer tubes (BD Biosciences, San Jose, Calif.) and used for isolation of PBMCs using Ficoll-Hypaque (Pharmacia, Uppsala, Sweden). Isolated PBMCs were cryopreserved in 90% FCS/10% DMSO until later use.
Cells from cryogenic storage were thawed in a 37° C. water bath, diluted with RPMI/1% FCS, washed 2 times, and then plated at 1×10^5 cells per well in RPMI/10% FCS.
Serial dilutions log 10 from 10 mM to 316 nM of test compounds are made in 100% DMSO, followed by a 100-fold dilution into RPMI/1% FCS. For each well, 10 μL was then transferred to the deep well plate containing 90 μL of PBMC cells. Final compound concentration range in the assay ranged from 10 μM to 0.316 nM, with a final DMSO concentration of 0.1%. PBMCs are then incubated for 2 h at 37° C. in presence or absence of test compounds, prior to stimulation with goat F(ab′)2 anti-IgM (Southern Biotech, #2022-14, final concentration in assay 5 μg/mL) for 18 hours.
Following stimulation with anti-IgM, PBMCs were incubated on ice for 30 min with anti-CD69-FITC, anti-CD19-BV421 (BD Biosciences #555530 and #562440, respectively) and 7AAD (Life Technologies #A1310). Flow cytometry was performed and fluorescence values were obtained from the CD69-FITC channel in CD19+ gated life B cells. ECso values are determined by curve fitting of the experimental results using GraphPad Prism.

Blk = Blk (Homo sapiens (Human), UniProt P51451); experiment: Blk Z-LYTE assay (Life Technologies); format: biochemical; conditions: Z-LYTE assay performed at Life Technologies
ErbB4 = ErbB4 (Homo sapiens (Human), UniProt Q15303); experiment: ErbB4 Z-LYTE assay (Life Technologies); format: biochemical; conditions: Z-LYTE assay performed at Life Technologies
Jak3 = Jak3 (Homo sapiens (Human), UniProt P52333); experiment: Jak3 Z-LYTE assay (Life Technologies); format: biochemical; conditions: Z-LYTE assay performed at Life Technologies
ITK = ITK (Homo sapiens (Human), UniProt Q08881); experiment: ITK enzyme activity, IMAP assay; format: biochemical; conditions: 60 min pre-incubation; 5 μM ATP
Experimental: ITK enzyme activity is measured using the IMAP (immobilized metal ion affinity-based fluorescence polarization) assay as outlined below.
ITK enzyme (Millipore #14-660M) is diluted to 0.2 U/mL in KR buffer (10 mM Tris-HCl, 10 mM MgCl2, 0.01% Tween-20, 0.1% NaN3, 1 mM DTT, 2 mM MnCl2, pH 7.5)
(§2) The dilutions in DMSO are then diluted 50-fold in KR-buffer.
(§3) Test compounds and ITK enzyme are pre-incubated 60 minutes at room temperature, before adding 5 μL/well of 200 nM Fluorescin labeled substrate peptide (Blk/Lyntide substrate #R8124, Molecular Devices) in KR-buffer. Final peptide substrate concentration in assay is 50 nM. […] IC50 values are determined by curve fitting of the experimental results using Activity Base.

Txk = Txk (Homo sapiens (Human), UniProt P42681); experiment: TXK enzyme activity, IMAP assay; format: biochemical; conditions: 60 min pre-incubation; 1 μM ATP
Experimental: TXK enzyme activity is measured using the IMAP (immobilized metal ion affinity-based fluorescence polarization) assay as outlined below.
TXK enzyme (Millipore #14-761), is diluted to 2.5 U/mL in KR buffer (10 mM Tris-HCl, 10 mM MgCl2, 0.01% Tween-20, 0.1% NaN3, 1 mM DTT, 2 mM MnCl2, pH 7.5).
as §1
The assay is performed as follows: 5 μL/well of test compound in KR buffer (final DMSO concentration in the assay is 1%) is mixed with 5 μL/well of 2.5 U/mL TXK enzyme (final concentration in the assay is 0.625 U/mL (4.4 nM)). Test compounds and TXK enzyme are pre-incubated 60 minutes at room temperature, before adding 5 μL/well of 200 nM Fluorescin labeled substrate peptide (Blk/Lyntide substrate #R7188, Molecular Devices) in KR-buffer. Final peptide substrate concentration in assay is 50 nM. […] Following incubation for 2 hours at room temperature the enzyme reaction is stopped by adding 40 μL/well IMAP Progressive Binding Solution (according to suppliers (Molecular Devices) protocol using 60% 1× buffer A and 40% 1× buffer B with 800× diluted beads (Progressive Binding System, Molecular Devices). After 60 min incubation at room temperature in the dark the FP signal is read. Fluorescence at 535 nm is measured using parallel and perpendicular filters to determine differences in rotation due to binding of the phosphorylated substrate peptide to the beads. Values are calculated as percentage of the difference in readout (ΔmPi) of the controls with and without ATP. IC50 values are determined by curve fitting of the experimental results using Activity Base.

EGFR WT = EGFR WT (Homo sapiens (Human), UniProt P00533); experiment: EGFR enzyme activity, IMAP assay; format: biochemical; conditions: 60 min pre-incubation; 2 μM ATP
Experimental: EGFR enzyme activity is measured using the IMAP (immobilized metal ion affinity-based fluorescence polarization) assay as outlined below.
EGFR enzyme (Invitrogen catalog #PR7295B), is diluted to 2.5 μg/mL in KR buffer (10 mM Tris-HCl, 10 mM MgCl2, 0.01% Tween-20, 0.1% NaN3, 1 mM DTT, 2 mM MnCl2, pH 7.5).
Final peptide substrate concentration in assay is 50 nM. […] Following incubation for 60 min at room temperature in the dark the enzyme reaction is stopped by adding 40 μL/well IMAP Progressive Binding Solution (according to suppliers (Molecular Devices) protocol using 20% 1× buffer A and 80% 1× buffer B with 600× diluted beads). After 60 min incubation at room temperature in the dark the FP signal is read. […] Values are calculated as percentage of the difference in readout (ΔmPi) of the controls with and without ATP. IC50 values are determined by curve fitting of the experimental results using GraphPad Prism6.

ErbB2 = ErbB2 (Homo sapiens (Human), UniProt P04626); experiment: ErbB2 Z-LYTE assay (Life Technologies); format: biochemical; conditions: Z-LYTE assay performed at Life Technologies
Bmx = Bmx (Homo sapiens (Human), UniProt P51813); experiment: BMX enzyme activity, IMAP assay; format: biochemical; conditions: 60 min pre-incubation; 5 μM ATP
Experimental: BMX enzyme activity is measured using the IMAP (immobilized metal ion affinity-based fluorescence polarization) assay as outlined below.
as §2
as §3, with “BMX” for “ITK”, “#R7188,” for “#R8124,”

Sequence of BTK (Q06187 whole entry): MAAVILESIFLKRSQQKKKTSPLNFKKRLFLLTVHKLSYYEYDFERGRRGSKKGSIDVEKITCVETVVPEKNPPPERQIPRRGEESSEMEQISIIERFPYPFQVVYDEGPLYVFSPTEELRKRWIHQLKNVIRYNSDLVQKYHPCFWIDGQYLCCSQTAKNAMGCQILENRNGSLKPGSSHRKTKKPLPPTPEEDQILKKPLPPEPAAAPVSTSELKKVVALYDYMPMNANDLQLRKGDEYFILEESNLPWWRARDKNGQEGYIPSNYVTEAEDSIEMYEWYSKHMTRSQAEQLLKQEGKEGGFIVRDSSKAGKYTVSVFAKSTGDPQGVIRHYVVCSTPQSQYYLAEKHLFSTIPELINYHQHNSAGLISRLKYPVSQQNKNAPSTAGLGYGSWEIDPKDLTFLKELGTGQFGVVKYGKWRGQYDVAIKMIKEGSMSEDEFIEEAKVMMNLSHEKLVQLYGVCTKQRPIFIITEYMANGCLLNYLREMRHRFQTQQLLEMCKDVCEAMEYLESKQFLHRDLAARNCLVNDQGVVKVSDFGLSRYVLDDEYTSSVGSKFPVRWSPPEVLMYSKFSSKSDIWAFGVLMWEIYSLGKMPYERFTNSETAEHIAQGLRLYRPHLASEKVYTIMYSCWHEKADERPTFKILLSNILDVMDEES
Sequence of EGFR WT (P00533 25-1210): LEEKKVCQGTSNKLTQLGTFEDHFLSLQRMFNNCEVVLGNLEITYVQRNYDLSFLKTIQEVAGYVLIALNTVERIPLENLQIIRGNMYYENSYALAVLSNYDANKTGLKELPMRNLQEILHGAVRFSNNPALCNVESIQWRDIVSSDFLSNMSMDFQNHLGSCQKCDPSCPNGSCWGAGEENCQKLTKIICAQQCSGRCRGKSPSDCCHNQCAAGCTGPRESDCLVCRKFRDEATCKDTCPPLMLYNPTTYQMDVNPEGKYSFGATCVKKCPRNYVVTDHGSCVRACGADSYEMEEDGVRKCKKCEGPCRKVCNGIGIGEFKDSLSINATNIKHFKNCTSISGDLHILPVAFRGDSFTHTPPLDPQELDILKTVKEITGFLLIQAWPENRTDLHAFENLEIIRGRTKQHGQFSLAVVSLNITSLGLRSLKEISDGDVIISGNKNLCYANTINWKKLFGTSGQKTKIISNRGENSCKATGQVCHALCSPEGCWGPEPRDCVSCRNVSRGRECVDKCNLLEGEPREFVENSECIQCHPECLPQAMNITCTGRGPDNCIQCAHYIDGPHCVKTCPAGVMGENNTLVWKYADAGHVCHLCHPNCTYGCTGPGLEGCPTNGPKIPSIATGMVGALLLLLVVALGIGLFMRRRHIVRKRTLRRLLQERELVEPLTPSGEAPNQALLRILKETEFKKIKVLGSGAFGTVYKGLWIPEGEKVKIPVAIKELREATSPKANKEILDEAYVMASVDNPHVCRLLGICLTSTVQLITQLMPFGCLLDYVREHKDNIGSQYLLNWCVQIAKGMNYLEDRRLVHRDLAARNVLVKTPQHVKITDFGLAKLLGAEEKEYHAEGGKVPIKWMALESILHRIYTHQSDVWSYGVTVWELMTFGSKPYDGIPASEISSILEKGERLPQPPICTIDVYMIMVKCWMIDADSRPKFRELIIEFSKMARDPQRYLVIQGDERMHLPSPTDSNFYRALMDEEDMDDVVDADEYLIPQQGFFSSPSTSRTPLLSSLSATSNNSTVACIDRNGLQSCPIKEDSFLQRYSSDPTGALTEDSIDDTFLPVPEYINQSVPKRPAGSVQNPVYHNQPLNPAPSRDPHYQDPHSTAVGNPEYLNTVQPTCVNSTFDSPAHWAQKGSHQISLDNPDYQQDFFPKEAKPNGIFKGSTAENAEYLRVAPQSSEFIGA
Sequence of ITK (Q08881 whole entry): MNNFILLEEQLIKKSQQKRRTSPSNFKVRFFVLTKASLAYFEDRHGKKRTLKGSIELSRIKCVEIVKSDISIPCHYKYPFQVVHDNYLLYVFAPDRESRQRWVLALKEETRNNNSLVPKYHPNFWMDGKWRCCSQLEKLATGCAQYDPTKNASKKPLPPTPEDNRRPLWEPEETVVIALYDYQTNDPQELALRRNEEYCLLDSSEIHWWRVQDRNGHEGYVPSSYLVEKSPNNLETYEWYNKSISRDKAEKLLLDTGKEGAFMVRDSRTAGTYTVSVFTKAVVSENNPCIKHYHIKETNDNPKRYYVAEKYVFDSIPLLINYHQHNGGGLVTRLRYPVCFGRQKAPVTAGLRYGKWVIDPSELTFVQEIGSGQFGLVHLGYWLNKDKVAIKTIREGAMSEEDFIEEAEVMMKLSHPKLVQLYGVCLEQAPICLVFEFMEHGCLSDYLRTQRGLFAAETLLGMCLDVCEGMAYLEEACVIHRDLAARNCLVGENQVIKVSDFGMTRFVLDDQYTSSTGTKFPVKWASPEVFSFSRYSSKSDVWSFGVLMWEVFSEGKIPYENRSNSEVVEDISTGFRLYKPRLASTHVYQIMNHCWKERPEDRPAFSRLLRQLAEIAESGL
Sequence of Blk (P51451 whole entry): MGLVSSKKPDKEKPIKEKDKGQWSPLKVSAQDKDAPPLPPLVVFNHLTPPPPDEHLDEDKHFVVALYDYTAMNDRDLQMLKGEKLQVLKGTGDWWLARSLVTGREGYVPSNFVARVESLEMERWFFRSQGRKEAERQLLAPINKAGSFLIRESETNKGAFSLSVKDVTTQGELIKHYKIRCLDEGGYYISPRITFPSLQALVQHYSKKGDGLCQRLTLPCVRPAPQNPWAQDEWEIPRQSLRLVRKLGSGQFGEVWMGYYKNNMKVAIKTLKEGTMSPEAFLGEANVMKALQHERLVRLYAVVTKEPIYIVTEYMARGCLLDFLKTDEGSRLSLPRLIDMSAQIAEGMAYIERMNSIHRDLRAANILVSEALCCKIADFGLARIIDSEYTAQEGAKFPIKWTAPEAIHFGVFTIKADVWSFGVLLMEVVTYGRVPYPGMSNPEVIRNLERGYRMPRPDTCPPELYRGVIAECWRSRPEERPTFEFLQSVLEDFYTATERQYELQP
Sequence of Bmx (P51813 whole entry): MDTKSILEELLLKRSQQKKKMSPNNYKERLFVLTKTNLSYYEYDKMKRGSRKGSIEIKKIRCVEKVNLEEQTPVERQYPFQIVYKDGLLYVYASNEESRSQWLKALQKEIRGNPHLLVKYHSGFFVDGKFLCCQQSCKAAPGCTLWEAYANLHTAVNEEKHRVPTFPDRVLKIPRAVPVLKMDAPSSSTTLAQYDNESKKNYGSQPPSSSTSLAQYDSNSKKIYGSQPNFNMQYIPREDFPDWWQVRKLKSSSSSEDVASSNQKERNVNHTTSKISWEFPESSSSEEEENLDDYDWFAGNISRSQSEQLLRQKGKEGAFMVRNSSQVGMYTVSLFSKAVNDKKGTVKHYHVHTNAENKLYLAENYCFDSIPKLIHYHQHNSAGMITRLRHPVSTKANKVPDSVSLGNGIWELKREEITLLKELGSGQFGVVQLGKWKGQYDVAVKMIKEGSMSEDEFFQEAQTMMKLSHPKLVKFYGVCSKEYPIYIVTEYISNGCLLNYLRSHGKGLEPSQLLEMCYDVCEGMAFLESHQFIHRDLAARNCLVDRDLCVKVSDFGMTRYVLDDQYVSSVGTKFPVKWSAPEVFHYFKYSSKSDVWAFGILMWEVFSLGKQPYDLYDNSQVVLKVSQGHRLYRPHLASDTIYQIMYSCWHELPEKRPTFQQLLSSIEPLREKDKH
Sequence of ErbB2 (P04626 23-1255): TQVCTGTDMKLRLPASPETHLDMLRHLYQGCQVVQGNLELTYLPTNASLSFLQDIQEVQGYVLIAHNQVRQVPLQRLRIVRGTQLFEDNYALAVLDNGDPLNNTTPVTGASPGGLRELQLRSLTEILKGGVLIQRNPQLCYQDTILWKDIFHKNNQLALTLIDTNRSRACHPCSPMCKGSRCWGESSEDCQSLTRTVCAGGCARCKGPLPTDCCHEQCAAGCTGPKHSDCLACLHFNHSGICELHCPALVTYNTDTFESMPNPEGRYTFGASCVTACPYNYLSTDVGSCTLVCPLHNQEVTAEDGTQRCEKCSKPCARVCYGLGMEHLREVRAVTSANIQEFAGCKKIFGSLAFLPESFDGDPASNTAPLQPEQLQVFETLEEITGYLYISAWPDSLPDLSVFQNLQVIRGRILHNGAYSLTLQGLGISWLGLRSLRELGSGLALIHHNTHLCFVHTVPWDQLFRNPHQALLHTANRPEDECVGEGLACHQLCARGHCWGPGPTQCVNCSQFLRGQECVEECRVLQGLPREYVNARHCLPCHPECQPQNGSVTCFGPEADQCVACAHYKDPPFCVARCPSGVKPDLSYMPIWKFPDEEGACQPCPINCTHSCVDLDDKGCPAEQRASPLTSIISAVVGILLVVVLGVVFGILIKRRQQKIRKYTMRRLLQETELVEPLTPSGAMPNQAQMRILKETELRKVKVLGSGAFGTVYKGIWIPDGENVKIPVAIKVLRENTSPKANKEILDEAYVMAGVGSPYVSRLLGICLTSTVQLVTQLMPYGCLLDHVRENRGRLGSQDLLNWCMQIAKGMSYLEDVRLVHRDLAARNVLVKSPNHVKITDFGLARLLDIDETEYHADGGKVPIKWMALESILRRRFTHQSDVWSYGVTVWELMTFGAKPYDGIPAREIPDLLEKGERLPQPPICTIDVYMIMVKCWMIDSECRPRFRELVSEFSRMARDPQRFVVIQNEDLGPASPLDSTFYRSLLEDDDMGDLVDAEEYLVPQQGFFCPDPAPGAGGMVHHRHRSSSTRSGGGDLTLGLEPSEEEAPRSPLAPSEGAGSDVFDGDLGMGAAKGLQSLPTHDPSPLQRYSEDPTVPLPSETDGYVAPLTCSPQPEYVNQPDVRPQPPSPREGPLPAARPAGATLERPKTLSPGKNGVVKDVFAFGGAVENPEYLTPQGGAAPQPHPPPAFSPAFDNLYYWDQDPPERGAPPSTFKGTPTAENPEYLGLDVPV

CC#CC(=O)N1CCC[C@H]1c1nc(-c2ccc(C(=O)Nc3cc(C(F)(F)F)ccn3)c(OC)c2)c2c(N)nccn12
IC50 (BTK): 2.5 nM
EC50 [1]: 3.7 nM
IC50 (Blk): 489 nM
IC50 (ErbB4): 99 nM
IC50 (Jak3): > 1000 nM
IC50 (ITK): > 1000 nM
IC50 (Txk): 16 nM
IC50 (EGFR WT): > 1000 nM
IC50 (ErbB2): > 1000 nM
IC50 (Bmx): 14 nM

Source: patent publication US11110088B2, “Imidazopyrazine inhibitors of Bruton's tyrosine kinase” (Acerta Pharma B.V., priority 2015, dated 2021)
